The source of these data is patent publication US20150291610A1, “C20' Urea Derivatives of Vinca Alkaloids” (THE SCRIPPS RESEARCH INSTITUTE, priority 2012, published 2015).

Molecules are shown by their SMILES. Read-outs that look alike come from different tables or passages of the source.

The subject of data set [1] is HCT116 (human colorectal carcinoma) cells. As to conditions: reported in Leggans et al., Org. Lett. 2012; cited from earlier work.
Data set [2] deals with L1210 (mouse lymphocytic leukemia) cells. Conditions: reported in Leggans et al., Org. Lett. 2012; cited from earlier work.
The subject of data set [3] is HCT116/VM46 (vinblastine-resistant strain of HCT116, Pgp over-expression) cells. As to conditions: read-out: IC50 (nM) HCT116/VM46; reported in Leggans et al., Org. Lett. 2012; cited from earlier work.
Data set [4] deals with HCT116 (human colorectal carcinoma) cells. Put plainly: Cell growth inhibition assay, HCT116. The data set is classed as cell-based. How it is done: (§1) A population of cells (>1×10^6 cells/mL as determined with a hemocytometer) was diluted with an appropriate amount of Dulbecco-modified Eagle Medium (DMEM, Gibco) containing 10% fetal bovine serum (FBS, Gibco) to a final concentration of 30,000 cells/mL.
(§2) To each well of a 96-well plate (Corning Costar), 100 μL of the cell-media solution was added with a multichannel pipette. The cultures were incubated at 37° C. in an atmosphere of 5% CO2 and 95% humidified air for 24 hours. The test compounds were added to the plate as follows: test substances were diluted in DMSO to a concentration of 1 mM and 10-fold serial dilutions were performed on a separate 96-well plate. Fresh culture medium (100 μL) was added to each well of cells to constitute 200 μL of medium per well followed by 2 μL of each test agent. Compounds were tested in duplicate (n=2-8 times) at six concentrations between 0-1,000 nM or 0-10,000 nM. Following addition, cultures were incubated for an additional 72 hours.
(§3) The plates were incubated at 37° C. for either 5 minutes (L1210) or 15 minutes (HCT116 and HCT116/VM46).

The subject of data set [5] is HCT116/VM46 (vinblastine-resistant strain of HCT116, Pgp over-expression) cells. The data set is described as follows: Cell growth inhibition assay, HCT116/VM46. Here is the method: as §1, §2, §3
In data set [6] the test system is L1210 (mouse lymphocytic leukemia) cells. The data set is described as follows: Cell growth inhibition assay, L1210. The data set is classed as cell-based. Conditions: L1210 murine leukemia cell line; avg of 4-16 determinations. How it is done: as §1, §2, §3
A further data set has as its target T1, porcine tubulin (Sus scrofa, UniProt P02550+P02554).
T1 construct: purified porcine tubulin; purchased Cytoskeleton, Inc
It counts as binding. As to conditions: for tubulin binding affinity compared with vinblastine: in words. The text has this: [Owellen et al., Biochem. Pharmacol. 1977 26:1213-1219.] […] Millipore Steriflip® filter units were used to wash the filter paper with buffer under mild suction.

For data set [7], the system named is HCC70 (Breast, overexpression of p53). Put plainly: 15-cell line panel: HCC70. Conditions: independent laboratory panel. The data set is classed as cell-based, human.
Another data set relates to LNCaP-FGC (Prostate). The data set is described as follows: 15-cell line panel: LNCaP-FGC. It counts as cell-based, human. Conditions: independent laboratory panel.
Data set [8] has as its system MCF-7 (Breast, overexpression of her2/neu). Put plainly: 15-cell line panel: MCF-7. It counts as cell-based, human. Conditions: independent laboratory panel; > = highest concentration tested.
Data set [9] relates to MDA-MB-468 (Breast, triple negative, amplified EGFR). The data set is described as follows: 15-cell line panel: MDA-MB-468. It counts as cell-based, human. Conditions: independent laboratory panel.
The subject of the next data set is HCT116 (Colon). Put plainly: 15-cell line panel: HCT116. The data set is classed as cell-based, human. Conditions: independent laboratory panel.
The subject of data set [10] is LS174T (Colon, high levels of MUC2 mRNA). The data set is described as follows: 15-cell line panel: LS174T. The data set is classed as cell-based, human. As to conditions: independent laboratory panel.
Data set [11] concerns AU565 (Breast, overexpression of her2/neu). The data set is described as follows: 15-cell line panel, independent laboratory: AU565. It counts as cell-based, human.
In data set [12] the test system is HCT116/VM46 (Colon, vinblastine resistant). The data set is described as follows: 15-cell line panel: HCT116/VM46. It counts as cell-based, human. Conditions: independent laboratory panel; > = highest concentration tested.
Data set [13] relates to human tumor 15-cell line panel. The data set is described as follows: Human tumor 15-cell line panel, whole panel (averages, ranges). It counts as cell-based.
Data set [14] deals with T47D (Breast, mutant p53). The data set is described as follows: 15-cell line panel: T47D. It counts as cell-based, human. Conditions: independent laboratory panel.
Data set [15] concerns SW403 (Colon, KRAS^G12V mutation). The data set is described as follows: 15-cell line panel: SW403. As to conditions: independent laboratory panel. It counts as cell-based, human.
Data set [16] concerns KPL4 (Breast, overexpression of erbB2). Put plainly: 15-cell line panel: KPL4. Conditions: independent laboratory panel. The data set is classed as cell-based, human.
A further data set has as its system NCI-H520 (Lung). The data set is described as follows: 15-cell line panel: NCI-H520. The data set is classed as cell-based, human. As to conditions: independent laboratory panel.
The test system of data set [17] is HCC1143 (Breast, triple negative). The data set is described as follows: 15-cell line panel: HCC1143. The data set is classed as cell-based, human. As to conditions: independent laboratory panel.
For data set [18], the system named is PA-1 (Ovary, overexpression of AIB1). The data set is described as follows: 15-cell line panel: PA-1. The data set is classed as cell-based, human. As to conditions: independent laboratory panel.
Data set [19] deals with ZR-75-1 (Breast, overexpression of her2). Put plainly: 15-cell line panel: ZR-75-1. As to conditions: independent laboratory panel. The data set is classed as cell-based, human.
The mark [20] stands for this setting: HCT116 human colon cancer cell line, avg of 4-16 determinations, read-out: IC50 (nM) HCT116.
Where [21] appears, read: read-out: IC50 (nM) HCT116/VM46, resistant human colon cancer cell line, Pgp over-expression.

T1 sequence (P02550 whole entry): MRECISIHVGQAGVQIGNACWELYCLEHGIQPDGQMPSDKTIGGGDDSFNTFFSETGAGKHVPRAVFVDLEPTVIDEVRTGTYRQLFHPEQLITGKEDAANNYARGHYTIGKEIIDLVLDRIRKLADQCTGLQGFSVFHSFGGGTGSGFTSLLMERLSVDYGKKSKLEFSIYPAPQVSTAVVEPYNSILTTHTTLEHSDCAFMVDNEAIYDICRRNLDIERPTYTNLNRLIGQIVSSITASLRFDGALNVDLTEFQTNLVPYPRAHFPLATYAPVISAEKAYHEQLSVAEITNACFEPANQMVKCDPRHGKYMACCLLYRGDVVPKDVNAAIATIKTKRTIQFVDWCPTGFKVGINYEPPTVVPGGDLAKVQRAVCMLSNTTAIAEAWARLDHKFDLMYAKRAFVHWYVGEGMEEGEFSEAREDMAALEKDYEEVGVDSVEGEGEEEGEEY
T1 sequence (P02554 whole entry): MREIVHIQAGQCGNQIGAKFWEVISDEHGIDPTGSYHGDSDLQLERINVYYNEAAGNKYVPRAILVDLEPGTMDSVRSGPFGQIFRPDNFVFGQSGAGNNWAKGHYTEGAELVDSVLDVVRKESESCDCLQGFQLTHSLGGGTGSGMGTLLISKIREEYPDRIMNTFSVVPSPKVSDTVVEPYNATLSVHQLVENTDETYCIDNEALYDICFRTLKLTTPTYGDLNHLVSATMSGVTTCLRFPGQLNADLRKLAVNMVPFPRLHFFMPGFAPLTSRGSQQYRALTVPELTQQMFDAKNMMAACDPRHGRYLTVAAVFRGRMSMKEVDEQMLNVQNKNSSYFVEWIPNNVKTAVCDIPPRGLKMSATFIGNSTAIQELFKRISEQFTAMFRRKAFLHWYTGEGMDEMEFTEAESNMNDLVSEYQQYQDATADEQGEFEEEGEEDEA

In the case of `CC[C@]1(N)C[C@H]2CN(CCc3c([nH]c4ccccc34)[C@@](C(=O)OC)(c3cc4c(cc3OC)N(C)[C@H]3[C@@](O)(C(=O)OC)[C@H](OC(C)=O)[C@]5(CC)C=CCN6CC[C@]43[C@@H]65)C2)C1` [Compound 7, 20′-aminovinblastine], the IC50 was 600 nM in [1]; 640 nM in data set [2]; more than 10000 nM in [3]; 600 nM in data set [4] (setting [20]); more than 10000 nM in data set [5] (setting [21]).
As to `CC[C@]1(NC(N)=O)C[C@@H]2CN(CCc3c([nH]c4ccccc34)[C@@](C(=O)OC)(c3cc4c(cc3OC)N(C)[C@H]3[C@@](O)(C(=O)OC)[C@H](OC(C)=O)[C@]5(CC)C=CCN6CC[C@]43[C@@H]65)C2)C1` [Compound 11, reference compound], the IC50 in data set [1] was 7.5 nM; in data set [6], 40 nM; in data set [2], 40 nM; in data set [3], 4400 nM; in [4] (setting [20]), 7.5 nM; in data set [5] it was 4400 nM.
In the case of `CC[C@]1(NC(N)=S)C[C@@H]2CN(CCc3c([nH]c4ccccc34)[C@@](C(=O)OC)(c3cc4c(cc3OC)N(C)[C@H]3[C@@](O)(C(=O)OC)[C@H](OC(C)=O)[C@]5(CC)C=CCN6CC[C@]43[C@@H]65)C2)C1` [Compound 12], the IC50 in data set [1] was 7.7 nM; in data set [2], 55 nM; in data set [3], 2000 nM; in data set [4] (setting [20]), 7.7 nM; in [5] (setting [21]) it was 2000 nM.
`CCC1(NC(=O)Nc2ccc(-c3ccccc3)cc2)C[C@H]2CN(CCc3c([nH]c4ccccc34)[C@@](C(=O)OC)(c3cc4c(cc3OC)N(C)[C@H]3C(O)(C(=O)OC)[C@H](OC(C)=O)[C@]5(CC)C=CCN6CC[C@]43[C@@H]65)C2)C1` (stereo partly shown) [Compound 35]: the “tubulin binding affinity compared with vinblastine” value on porcine tubulin is reported as “affinity matching or even slightly exceeding that of vinblastine”. Besides, the “% ^3H-vinblastine remaining bound” value at porcine tubulin (ligand vs [^3H]VBL (1:1), normalized to VLB + [^3H]VLB = 50.0%) was found to be 48.5 ± 6.9%. The IC50 came to 6.9 nM in data set [4] (Homo sapiens, HCT-116, read-out: IC50 (nM) HCT116) and 470 nM in data set [5] (Homo sapiens, HCT-116/VM46, read-out: IC50 (nM) HCT116/VM46).
For `CCC1(NC(=O)N(C)C)CC2CN(CCc3c([nH]c4ccccc34)C(C(=O)OC)(c3cc4c(cc3OC)N(C)C3C(O)(C(=O)OC)C(OC(C)=O)C5(CC)C=CCN6CCC43C65)C2)C1` (stereo not shown) [Compound 39], the “% ^3H-vinblastine remaining bound” value on porcine tubulin was found to be 45.1 ± 3.5%. Moreover, the “tubulin binding affinity compared with vinblastine” value at porcine tubulin is “slightly better affinity than vinblastine”. In addition, the IC50 in [6] is 5.9 nM; in [4] (setting [20]), 2.8 nM; in data set [5] (setting [21]), 80 nM. The “fold more potent than vinblastine, HCT116” value in [4] (relative to vinblastine) is given as 3 fold. In [5] (HCT116/VM46 vs HCT116), the “activity difference between sensitive HCT116 and vinblastine-resistant HCT116/VM46” value is reported as 10 fold.
For `CCC1(NC(=O)N2CCc3ccccc3C2)CC2CN(CCc3c([nH]c4ccccc34)C(C(=O)OC)(c3cc4c(cc3OC)N(C)C3C(O)(C(=O)OC)C(OC(C)=O)C5(CC)C=CCN6CCC43C65)C2)C1` (stereo not shown) [Compound 57], the IC50 turned out to be 0.13 nM in data set [7]; 0.02 nM in the data set with LNCaP-FGC (Prostate) (read-out: IC50 LNCaP-FGC); 2.1 nM in [8]; 0.62 nM in data set [6]; 0.12 nM in [9]; 0.26 nM in the data set with HCT116 (Colon). In addition, the IC50 in [10] turned out to be 0.3 nM; in data set [11] it was 0.13 nM; in [12], 6.6 nM; in data set [14] it was 0.55 nM; in data set [4] (setting [20]) it was 0.56 nM; in [15], 1.2 nM. Also, the IC50 in data set [16] is 0.06 nM; in data set [5] (setting [21]), 8.7 nM; in the data set with NCI-H520 (Lung) it was 0.14 nM; in data set [17], 0.16 nM; in [18] it was 0.19 nM; in [19], 0.52 nM. In addition, the “tubulin binding affinity compared with vinblastine” value on porcine tubulin was “higher affinity than vinblastine”. For the same molecule, the “average enhancement over the activity of vinblastine in panel” value in data set [13] (average over panel) came to 30 fold. Moreover, in data set [13] (comparative average), the “average IC50 value in human tumor cell line panel” value was determined as 0.2 nM.
As to `CCC1(NC(=O)NC(=O)C(Cl)(Cl)Cl)CC2CN(CCc3c([nH]c4ccccc34)C(C(=O)OC)(c3cc4c(cc3OC)N(C)C3C(O)(C(=O)OC)C(OC(C)=O)C5(CC)C=CCN6CCC43C65)C2)C1` (stereo not shown) [NHCONHCOCCl3], the figures for the IC50 in data set [1], in data set [2] and in data set [3] were 6 nM, 45 nM and 1600 nM, respectively.
Turning to `CCC1(SC#N)CC2CN(CCc3c([nH]c4ccccc34)C(C(=O)OC)(c3cc4c(cc3OC)N(C)C3C(O)(C(=O)OC)C(OC(C)=O)C5(CC)C=CCN6CCC43C65)C2)C1` (stereo not shown) [SCN], the IC50 in data set [1] was 550 nM; in [2] it was 560 nM; in data set [3], 2900 nM.
With `CC1(C)CCCC(C)(C)N1[O]` [TEMPO], the IC50 in [1] was 3800 nM; in [2], 4000 nM; in data set [3], 5600 nM.
As for `CC[C@]1(O)C[C@@H]2CN(CCc3c([nH]c4ccccc34)[C@@](C(=O)OC)(c3cc4c(cc3OC)N(C)[C@H]3[C@@](O)(C(=O)OC)[C@H](OC(C)=O)[C@]5(CC)C=CCN6CC[C@]43[C@@H]65)C2)C1` [Vinblastine (1), Vinblastine, reference compound], the IC50 in [7] was 3.5 nM; in the data set with LNCaP-FGC (Prostate) (read-out: IC50 (nM) LNCaP-FGC) it was 5.1 nM; in data set [8] it was more than 110 nM; in data set [6] it was 6 nM; in data set [2], 6 nM; in data set [9], 4.6 nM. The IC50 is 600 nM in data set [3]; 19.6 nM in data set [10]; 4 nM in data set [11]; more than 110 nM in data set [12]; 5 nM in data set [14]; 7.9 nM in data set [15]. Moreover, the IC50 was 2.9 nM in data set [16]; 600 nM in data set [5] (setting [21]); 4.5 nM in the data set on NCI-H520 (Lung); 3.8 nM in data set [17]; 4.6 nM in data set [18]; 8 nM in data set [19]. On porcine tubulin, the “% ^3H-vinblastine remaining bound” value is listed as 50.0%.
